target: T1, Zcchc11 enzyme (Homo sapiens, UniProt Q5TAX3); assay: TUTase assay (Zcchc11 assay, Lin28a-dependent polyuridylation of pre-let-7); assay type: biochemical; conditions: Lin28a-dependent Zcchc11 (Z11) TUTase assay; read-out: Potency Lin28a-dep Z11 IC50
T1 construct: made in house; host or cells: HEK293 cells (Zcchc11); E. coli Rosetta II (LIN28A)
T1 sequence (Q5TAX3 212-1420): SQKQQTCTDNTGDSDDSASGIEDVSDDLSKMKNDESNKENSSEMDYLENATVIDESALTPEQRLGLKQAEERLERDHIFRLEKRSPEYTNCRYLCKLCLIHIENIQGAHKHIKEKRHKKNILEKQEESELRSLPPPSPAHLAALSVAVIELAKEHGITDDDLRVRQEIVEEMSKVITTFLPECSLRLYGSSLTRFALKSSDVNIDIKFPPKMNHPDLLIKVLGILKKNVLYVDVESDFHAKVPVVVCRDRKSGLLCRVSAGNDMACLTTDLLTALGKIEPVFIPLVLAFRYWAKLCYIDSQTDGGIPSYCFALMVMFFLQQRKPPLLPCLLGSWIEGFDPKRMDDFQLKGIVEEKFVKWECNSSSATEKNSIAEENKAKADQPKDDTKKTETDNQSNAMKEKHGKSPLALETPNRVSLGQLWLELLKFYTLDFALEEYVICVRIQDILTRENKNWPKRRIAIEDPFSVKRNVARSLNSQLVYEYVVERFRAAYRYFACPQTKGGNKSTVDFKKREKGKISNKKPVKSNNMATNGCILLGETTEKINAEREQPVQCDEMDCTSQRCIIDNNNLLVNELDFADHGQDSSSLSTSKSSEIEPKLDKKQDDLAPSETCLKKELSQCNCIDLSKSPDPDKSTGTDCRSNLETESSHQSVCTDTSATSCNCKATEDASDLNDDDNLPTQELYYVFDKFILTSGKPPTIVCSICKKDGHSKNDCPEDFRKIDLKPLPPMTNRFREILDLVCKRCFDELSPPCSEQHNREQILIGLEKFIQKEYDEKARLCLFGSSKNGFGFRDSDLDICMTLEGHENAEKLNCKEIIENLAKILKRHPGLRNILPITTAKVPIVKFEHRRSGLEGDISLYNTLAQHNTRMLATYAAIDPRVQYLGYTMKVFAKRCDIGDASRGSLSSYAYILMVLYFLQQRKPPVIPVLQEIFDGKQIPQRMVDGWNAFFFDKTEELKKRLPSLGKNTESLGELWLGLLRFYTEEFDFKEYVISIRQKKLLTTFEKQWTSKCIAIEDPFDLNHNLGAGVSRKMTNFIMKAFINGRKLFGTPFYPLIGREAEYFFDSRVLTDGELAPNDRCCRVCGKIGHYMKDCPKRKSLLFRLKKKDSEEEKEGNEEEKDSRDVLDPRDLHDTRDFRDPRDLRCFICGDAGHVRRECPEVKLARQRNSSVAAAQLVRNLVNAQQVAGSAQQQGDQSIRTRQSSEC
Procedure, shortened: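 HEK293-expressed human Zcchc11 (residues 212-1420, 0.2 nM) with 10 nM LIN28A and 2 nM 5′-fluorescein pre-let-7, preincubated 30 min at room temperature, pH 7.3. Started with 5 uM UTP; poly(U) tails quenched by 3′-rhodamine A20 probe, read kinetically. IC50 from early-rate four-parameter fit; no-UTP wells define 0%.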

With `COc1ccc(C2C[C@H](COc3ncccc3Cl)N(c3cc4c(cc3Cl)c(=O)c(C(=O)O)cn4-c3ccc(N4CC(N(C)C)C4)nc3)C2)cn1` (stereo partly drawn) [Example 603, 6-chloro-7-((2R)-2-(((3-chloropyridin-2-yl)oxy)methyl)-4-(6-methoxypyridin-3-yl)pyrrolidin-1-yl)-1-(6-(3-(dimethylamino)azetidin-1-yl)pyridin-3-yl)-4-oxo-1,4-dihydroquinoline-3-carboxylic acid] as the molecule, how does the IC50 read?
Its IC50 is ≤ 1000 nM.

Which IC50 does the source give for `O=C(O)c1cn(-c2cc3nc[nH]c3cn2)c2cc(N3CCC[C@@H]3COc3ncccc3Cl)c(Cl)cc2c1=O` [Example 604, (R)-6-chloro-7-(2-(((3-chloropyridin-2-yl)oxy)methyl)pyrrolidin-1-yl)-1-(3H-imidazo[4,5-c]pyridin-6-yl)-4-oxo-1,4-dihydroquinoline-3-carboxylic acid] here?
Its IC50 is ≤ 1000 nM.

For `O=C(O)c1cn(-c2ccc(C3COC3)nc2)c2cc(N3CCC[C@@H]3COc3ncccc3Cl)c(Cl)cc2c1=O` [Example 605, (R)-6-chloro-7-(2-(((3-chloropyridin-2-yl)oxy)methyl)pyrrolidin-1-yl)-1-(6-(oxetan-3-yl)pyridin-3-yl)-4-oxo-1,4-dihydroquinoline-3-carboxylic acid], which IC50 is on record?
The IC50 was ≤ 1000 nM.

Which IC50 does the source give for `O=C(O)c1cn(-c2ccc(C3CNC3)nc2)c2cc(N3CCC[C@@H]3COc3ncccc3Cl)c(Cl)cc2c1=O` [Example 606, (R)-1-(6-(azetidin-3-yl)pyridin-3-yl)-6-chloro-7-(2-(((3-chloropyridin-2-yl)oxy)methyl)pyrrolidin-1-yl)-4-oxo-1,4-dihydroquinoline-3-carboxylic acid] here?
The IC50 was ≤ 1000 nM.

For `O=C(O)c1cn(-c2ccc(C3(O)COC3)nc2)c2cc(N3CCC[C@@H]3COc3ncccc3Cl)c(Cl)cc2c1=O` [Example 607, (R)-6-chloro-7-(2-(((3-chloropyridin-2-yl)oxy)methyl)pyrrolidin-1-yl)-1-(6-(3-hydroxy-oxetan-3-yl)pyridin-3-yl)-4-oxo-1,4-dihydroquinoline-3-carboxylic acid], which IC50 is on record?
The IC50 was ≤ 1000 nM.

`CN(C)C1CN(c2ccc(-n3cc(C(=O)O)c(=O)c4cc(Cl)c(N5CC(c6ccc(O)nc6)C[C@@H]5COc5ncccc5Cl)cc43)cn2)C1` (some centres unmarked) [Example 608] was tested. Which IC50 did it give?
Its IC50 is ≤ 1000 nM.

Which IC50 does the source give for `CN(C)C1CN(c2ccc(-n3cc(C(=O)O)c(=O)c4cc(Cl)c(N5CCC[C@@]5(C)COc5ncccc5Cl)cc43)cn2)C1` [Example 609, (S)-6-chloro-7-(2-(((3-chloropyridin-2-yl)oxy)methyl)-2-methylpyrrolidin-1-yl)-1-(6-(3-(dimethylamino)azetidin-1-yl)pyridin-3-yl)-4-oxo-1,4-dihydroquinoline-3-carboxylic acid] here?
The IC50 was ≤ 1000 nM.

How did the IC50 turn out when `CN(C)C1CN(c2ccc(-n3cc(C(=O)O)c(=O)c4cc(Cl)c(N5CCC[C@@H]5C[S+]([O-])c5ncccc5Cl)cc43)cn2)C1` (stereo partly drawn) [Example 610, 6-chloro-7-((2R)-2-(((3-chloropyridin-2-yl)sulfinyl)methyl)pyrrolidin-1-yl)-1-(6-(3-(dimethylamino)azetidin-1-yl)pyridin-3-yl)-4-oxo-1,4-dihydroquinoline-3-carboxylic acid] was run?
The IC50 was 1000 to 10000 nM.

For `O=C(O)c1cn(-c2ccc(C3(O)CNC3)nc2)c2cc(N3CCC[C@@H]3COc3ncccc3Cl)c(Cl)cc2c1=O` [Example 611, (R)-6-chloro-7-(2-(((3-chloropyridin-2-yl)oxy)methyl)pyrrolidin-1-yl)-1-(6-(3-hydroxyazetidin-3-yl)pyridin-3-yl)-4-oxo-1,4-dihydroquinoline-3-carboxylic acid], which IC50 is on record?
Its IC50 is ≤ 1000 nM.

How did the IC50 turn out when `CN(C)C1CN(c2ccc(-n3cc(C(=O)O)c(=O)c4cc(F)c(N5CCC[C@@H]5COc5cc(OCc6ccccc6)ccn5)c(F)c43)cn2)C1` [Example 612, (R)-7-(2-(((4-(benzyloxy)pyridin-2-yl)oxy)methyl)pyrrolidin-1-yl)-1-(6-(3-(dimethylamino)azetidin-1-yl)pyridin-3-yl)-6,8 difluoro-4-oxo-1,4-dihydroquinoline-3-carboxylic acid] was run?
Its IC50 is ≤ 1000 nM.

How did the IC50 turn out when `CN(C)C1CN(c2ccc(-n3cc(C(=O)O)c(=O)c4cc(F)c(N5CCC[C@@H]5COc5ncccc5Cl)c(F)c43)cn2)C1` [Example 613] was run?
The IC50 was ≤ 1000 nM.

How did the IC50 turn out when `COCCN(C)C1CN(c2ccc(-n3cc(C(=O)O)c(=O)c4cc(F)c(N5CCC[C@@H]5COc5ncccc5Cl)cc43)cn2)C1` [Example 614, (R)-7-(2-(((3-chloropyridin-2-yl)oxy)methyl)pyrrolidin-1-yl)-6-fluoro-1-(6-(3-((2-methoxyethyl) (methyl)amino)azetidin-1-yl)pyridin-3-yl)-4-oxo-1,4-dihydroquinoline-3-carboxylic acid] was run?
Its IC50 is ≤ 1000 nM.

`CC(C)(C)OC(=O)N1CC(c2ccc(-n3cc(C(=O)O)c(=O)c4cc(Cl)c(N5CCC[C@@H]5COc5ncccc5Cl)cc43)cn2)C1` [Example 615, (R)-1-(6-(1-(tert-butoxycarbonyl)azetidin-3-yl)pyridin-3-yl)-6-chloro-7-(2-(((3-chloropyridin-2-yl)oxy)methyl)pyrrolidin-1-yl)-4-oxo-1,4-dihydroquinoline-3-carboxylic acid] was tested. Which IC50 did it give?
Its IC50 is ≤ 1000 nM.

For `Cc1nc2cc(-n3cc(C(=O)O)c(=O)c4cc(Cl)c(N5CCC[C@@H]5COc5ncccc5Cl)cc43)ncc2[nH]1` [Example 616, (R)-6-chloro-7-(2-(((3-chloropyridin-2-yl)oxy)methyl)pyrrolidin-1-yl)-1-(2-methyl-3H-imidazo[4,5-c]pyridin-6-yl)-4-oxo-1,4-dihydroquinoline-3-carboxylic acid], which IC50 is on record?
The IC50 was ≤ 1000 nM.

How did the IC50 turn out when `Nc1cc(-n2cc(C(=O)O)c(=O)c3cc(Cl)c(N4CCC[C@@H]4COc4ncccc4Cl)cc32)cnn1` [Example 617, (R)-1-(6-aminopyridazin-4-yl)-6-chloro-7-(2-(((3-chloropyridin-2-yl)oxy)methyl)pyrrolidin-1-yl)-4-oxo-1,4-dihydroquinoline-3-carboxylic acid] was run?
The IC50 was ≤ 1000 nM.

With `CN(C)C1CN(c2ccc(-n3cc(C(=O)O)c(=O)c4cc(Cl)c(N5CCC[C@@H]5CS(=O)(=O)c5ncccc5Cl)cc43)cn2)C1` [Example 618, (R)-6-chloro-7-(2-(((3-chloropyridin-2-yl)sulfonyl)methyl)pyrrolidin-1-yl)-1-(6-(3-(dimethylamino)azetidin-1-yl)pyridin-3-yl)-4-oxo-1,4-dihydroquinoline-3-carboxylic acid] as the molecule, how does the IC50 read?
The IC50 was ≤ 1000 nM.

How did the IC50 turn out when `CN(C)C1CN(c2ccc(-n3cc(C(=O)O)c(=O)c4cc(Cl)c(N5C6CC6C[C@@H]5COc5ccccn5)cc43)cn2)C1` (stereo partly drawn) [Example 619, 6-chloro-1-(6-(3-(dimethylamino)azetidin-1-yl)pyridin-3-yl)-4-oxo-7-((3R)-3-((pyridin-2-yloxy)methyl)-2-azabicyclo[3.1.0]hexan-2-yl)-1,4-dihydroquinoline-3-carboxylic acid] was run?
The IC50 was ≤ 1000 nM.

`CN(C)C1CN(c2ccc(-n3cc(C(=O)O)c(=O)c4cc(F)c(N5CCC[C@]5(C)COc5ncccc5Cl)nc43)cn2)C1` [Example 620, (R)-7-(2-(((3-chloropyridin-2-yl)oxy)methyl)-2-methylpyrrolidin-1-yl)-1-(6-(3-(dimethylamino)azetidin-1-yl)pyridin-3-yl)-6-fluoro-4-oxo-1,4-dihydro-1,8-naphthyridine-3-carboxylic acid] was tested. Which IC50 did it give?
Its IC50 is ≤ 1000 nM.

For `O=C(O)c1cn(-c2ccc3c(c2)CS(=O)(=O)N3)c2cc(N3CCC[C@@H]3COc3ncccc3Cl)c(Cl)cc2c1=O` [Example 621, (R)-6-chloro-7-(2-(((3-chloropyridin-2-yl)oxy)methyl)pyrrolidin-1-yl)-1-(2,2-dioxido-1,3-dihydrobenzo[c]isothiazol-5-yl)-4-oxo-1,4-dihydroquinoline-3-carboxylic acid], which IC50 is on record?
The IC50 was ≤ 1000 nM.

For `CN(C)C1CN(c2ncc(-n3cc(C(=O)O)c(=O)c4cc(Cl)c(N5CCC[C@]5(C)COc5ncccc5Cl)nc43)cn2)C1` [Example 622, (R)-6-chloro-7-(2-(((3-chloropyridin-2-yl)oxy)methyl)-2-methylpyrrolidin-1-yl)-1-(2-(3-(dimethylamino)azetidin-1-yl)pyrimidin-5-yl)-4-oxo-1,4-dihydro-1,8-naphthyridine-3-carboxylic acid], which IC50 is on record?
The IC50 was 1000 to 10000 nM.

— patent publication US12662491B2 (Redona Therapeutics, Inc., priority 2020, dated 2026)
